In patent US10894817B2, “Fatty acid modified urocortin-2 analogs for the treatment of diabetes and chronic kidney disease” (priority 2016, dated 2021) one finds EC50 data, which are given here for 5 compounds.

Molecules are shown by their SMILES. Starred links: 1 amine or outer side, 2 acyl side, 3 side chain; linkers in the order of their positions; H or OH if unused. Residues, ends and D or L forms follow the SMILES beside them. Groups on a side chain read outwards from the residue. *: point of attachment. γGlu = O=C(O)[C@H](CCC(=O)[*:2])N[*:1]; Palmitoyl = CCCCCCCCCCCCCCCC(=O)*

For this experiment, the target named is T1, human CRHR2b (Homo sapiens, UniProt Q13324).
T1 construct: expressed in transfected cells; host or cells: Chinese Hamster Ovary (CHO) cells, transient transfection
T1 sequence (Q13324 1-438 isoform Q13324-2): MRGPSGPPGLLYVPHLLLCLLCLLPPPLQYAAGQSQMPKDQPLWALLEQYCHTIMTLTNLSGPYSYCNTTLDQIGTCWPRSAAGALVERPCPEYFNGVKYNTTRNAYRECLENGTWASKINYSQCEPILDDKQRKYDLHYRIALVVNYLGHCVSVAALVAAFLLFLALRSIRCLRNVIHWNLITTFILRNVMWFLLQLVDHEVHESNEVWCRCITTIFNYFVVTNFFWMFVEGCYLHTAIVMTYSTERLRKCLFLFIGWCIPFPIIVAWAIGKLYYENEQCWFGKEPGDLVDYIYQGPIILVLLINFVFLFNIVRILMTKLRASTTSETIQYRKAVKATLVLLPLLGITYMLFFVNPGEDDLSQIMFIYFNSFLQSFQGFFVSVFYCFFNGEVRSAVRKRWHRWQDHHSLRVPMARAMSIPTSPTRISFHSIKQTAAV
The experiment can be described thus: human CRHR2b cell-based cAMP assay. The settings on record: cAMP assay; Table 26, compounds of Example 9; read-out: hCRHR2b Average EC50. As to the method:
CRHR agonistic activity is measured in a cell-based cAMP assay. Serial dilutions of the test peptides are made in assay buffer containing Hank's Balanced Salt Solution (HBSS, without phenol red) supplemented with 20 mM HEPES and 0.05% lactalbumin enzymatic hydrolysate (LAH) (“assay buffer”). […] A one to three dilution of the test peptides is used in both assays. Receptor over-expressing Chinese Hamster Ovary (CHO) cell line is used for the human CRHR2b assay. […] AF011406.1). Forty-eight hours after the transfection, the cells are centrifuged to remove the culture media and resuspended in fetal bovine serum containing 5% DMSO. They are cryofrozen and stored in vials in liquid nitrogen (20×10^6 cells/ml/vial). On the day of the assay, cells are thawed and resuspended in cold 30 ml culture media supplemented with 20 mM HEPES. The cells are then centrifuged to remove the media and washed once with HBSS supplemented with 20 mM HEPES. Finally, following the last centrifugation, the cells are resuspended in assay buffer. Thirty-thousand cells are used in the human CRHR2b assay for each treatment. The cells are dispensed into Costar 96-well black polystyrene half area EIA/RIA plates (Corning Incorporated, Corning, N.Y.) followed by the addition of the diluted peptides, each at a volume of 20 μL. The agonist induced cAMP levels are detected using a HTRF cAMP Dynamic 2 kit (CisBio, Bedford, Mass.). After incubation at 37° C. for 30 min, the assay is stopped by cell lysis via the addition of 20 μL of d2-labeled cAMP and followed by 20 μL of cryptate-labeled anti-cAMP antibody, as described by the manufacturer. Cellular cAMP (as a result of agonist stimulation) competes with the d2-labeled cAMP for binding to the antibody. HTRF detection is performed on an Envision plate reader (Perkin Elmer Life and Analytical Sciences, Waltham, Mass.) by measuring ratiometric emission at 620 and 665 nm after excitation at 320 nm. The data are converted to picomoles of cAMP using a standard curve obtained from the same assay performed with varying concentrations of unlabeled cAMP. […] The data are analyzed using a Curve Fitting Tool to calculate ED50. Numeric values shown below in Table 1 represent the mean of multiple runs (number of runs shown in parentheses) following the mean value±SEM.
(Changes in cAMP serve as a functional read-out for many G protein-coupled receptors.)
Take `CCCCCCCCCCCCCCCC(=O)N[C@@H](CCC(=O)NCCCC[C@H](NC(=O)[C@H](CCCCN)NC(=O)[C@H](CCC(=O)O)NC(=O)[C@H](CCC(N)=O)NC(=O)[C@H](CCC(=O)O)NC(=O)[C@H](CC(C)C)NC(=O)[C@H](CC(C)C)NC(=O)[C@@H](NC(=O)[C@H](CCC(N)=O)NC(=O)[C@H](CC(C)C)NC(=O)[C@H](CC(C)C)NC(=O)CNC(=O)[C@@H](NC(=O)[C@@H]1CCCN1C(=O)[C@@H](NC(=O)[C@H](CC(=O)O)NC(=O)[C@H](CC(C)C)NC(=O)[C@H](CO)NC(=O)[C@H](CC(C)C)NC(=O)[C@@H](NC(=O)[C@@H](N)[C@@H](C)CC)C(C)C)C(C)C)[C@@H](C)CC)[C@@H](C)CC)C(=O)N[C@@H](CCC(=O)O)C(=O)N[C@@H](CCCCN)C(=O)N[C@@H](CCC(=O)O)C(=O)N[C@@H](CCCCN)C(=O)N[C@@H](CCC(N)=O)C(=O)N[C@@H](CCC(N)=O)C(=O)N[C@@H](C)C(=O)N[C@H](C(=O)N[C@H](C(=O)N[C@@H](CC(N)=O)C(=O)N[C@@H](C)C(=O)N[C@@H](CCCNC(=N)N)C(=O)N[C@H](C(=O)N[C@@H](CC(C)C)C(=O)N[C@@H](C)C(=O)N[C@@H](CCCNC(=N)N)C(=O)N[C@H](C(N)=O)C(C)C)[C@@H](C)CC)[C@@H](C)O)[C@@H](C)O)C(=O)O` [Compound 26] (H-IVLSLDVPIGLLQILLEQEKK([γGlu-Palmitoyl])EKEKQQATTNARILARV-NH2): the concentration giving a half-maximal response (EC50) – broadly, the concentration that produces a half-maximal response – was 15.6 nM.

Consider `CCCCCCCCCCCCCCCC(=O)N[C@@H](CCC(=O)NCCCC[C@H](NC(=O)[C@H](CCC(N)=O)NC(=O)[C@H](CCCCN)NC(=O)[C@H](CCC(=O)O)NC(=O)[C@H](CCC(N)=O)NC(=O)[C@H](CCC(=O)O)NC(=O)[C@H](CC(C)C)NC(=O)[C@H](CC(C)C)NC(=O)[C@@H](NC(=O)[C@H](CCC(N)=O)NC(=O)[C@H](CC(C)C)NC(=O)[C@H](CC(C)C)NC(=O)CNC(=O)[C@@H](NC(=O)[C@@H]1CCCN1C(=O)[C@@H](NC(=O)[C@H](CC(=O)O)NC(=O)[C@H](CC(C)C)NC(=O)[C@H](CO)NC(=O)[C@H](CC(C)C)NC(=O)[C@@H](NC(=O)[C@@H](N)[C@@H](C)CC)C(C)C)C(C)C)[C@@H](C)CC)[C@@H](C)CC)C(=O)N[C@@H](CCCCN)C(=O)N[C@@H](CCC(=O)O)C(=O)N[C@@H](CCCCN)C(=O)N[C@@H](CCC(N)=O)C(=O)N[C@@H](CCC(N)=O)C(=O)N[C@@H](C)C(=O)N[C@H](C(=O)N[C@H](C(=O)N[C@@H](CC(N)=O)C(=O)N[C@@H](C)C(=O)N[C@@H](CCCNC(=N)N)C(=O)N[C@H](C(=O)N[C@@H](CC(C)C)C(=O)N[C@@H](C)C(=O)N[C@@H](CCCNC(=N)N)C(=O)N[C@H](C(N)=O)C(C)C)[C@@H](C)CC)[C@@H](C)O)[C@@H](C)O)C(=O)O` [Compound 27] (H-IVLSLDVPIGLLQILLEQEKQK([γGlu-Palmitoyl])KEKQQATTNARILARV-NH2), for which the EC50 was found to be 31.5 nM.

For `CCCCCCCCCCCCCCCC(=O)N[C@@H](CCC(=O)NCCCC[C@H](NC(=O)[C@H](CCC(=O)O)NC(=O)[C@H](CCC(N)=O)NC(=O)[C@H](CCCCN)NC(=O)[C@H](CCC(=O)O)NC(=O)[C@H](CCC(N)=O)NC(=O)[C@H](CCC(=O)O)NC(=O)[C@H](CC(C)C)NC(=O)[C@H](CC(C)C)NC(=O)[C@@H](NC(=O)[C@H](CCC(N)=O)NC(=O)[C@H](CC(C)C)NC(=O)[C@H](CC(C)C)NC(=O)CNC(=O)[C@@H](NC(=O)[C@@H]1CCCN1C(=O)[C@@H](NC(=O)[C@H](CC(=O)O)NC(=O)[C@H](CC(C)C)NC(=O)[C@H](CO)NC(=O)[C@H](CC(C)C)NC(=O)[C@@H](NC(=O)[C@@H](N)[C@@H](C)CC)C(C)C)C(C)C)[C@@H](C)CC)[C@@H](C)CC)C(=O)N[C@@H](CCC(=O)O)C(=O)N[C@@H](CCCCN)C(=O)N[C@@H](CCC(N)=O)C(=O)N[C@@H](CCC(N)=O)C(=O)N[C@@H](C)C(=O)N[C@H](C(=O)N[C@H](C(=O)N[C@@H](CC(N)=O)C(=O)N[C@@H](C)C(=O)N[C@@H](CCCNC(=N)N)C(=O)N[C@H](C(=O)N[C@@H](CC(C)C)C(=O)N[C@@H](C)C(=O)N[C@@H](CCCNC(=N)N)C(=O)N[C@H](C(N)=O)C(C)C)[C@@H](C)CC)[C@@H](C)O)[C@@H](C)O)C(=O)O` [Compound 28] (H-IVLSLDVPIGLLQILLEQEKQEK([γGlu-Palmitoyl])EKQQATTNARILARV-NH2), the EC50 was 83.2 nM.

As for `CCCCCCCCCCCCCCCC(=O)N[C@@H](CCC(=O)NCCCC[C@H](NC(=O)[C@H](CCCCN)NC(=O)[C@H](CCC(=O)O)NC(=O)[C@H](CCC(N)=O)NC(=O)[C@H](CCCCN)NC(=O)[C@H](CCC(=O)O)NC(=O)[C@H](CCC(N)=O)NC(=O)[C@H](CCC(=O)O)NC(=O)[C@H](CC(C)C)NC(=O)[C@H](CC(C)C)NC(=O)[C@@H](NC(=O)[C@H](CCC(N)=O)NC(=O)[C@H](CC(C)C)NC(=O)[C@H](CC(C)C)NC(=O)CNC(=O)[C@@H](NC(=O)[C@@H]1CCCN1C(=O)[C@@H](NC(=O)[C@H](CC(=O)O)NC(=O)[C@H](CC(C)C)NC(=O)[C@H](CO)NC(=O)[C@H](CC(C)C)NC(=O)[C@@H](NC(=O)[C@@H](N)[C@@H](C)CC)C(C)C)C(C)C)[C@@H](C)CC)[C@@H](C)CC)C(=O)N[C@@H](CCCCN)C(=O)N[C@@H](CCC(N)=O)C(=O)N[C@@H](CCC(N)=O)C(=O)N[C@@H](C)C(=O)N[C@H](C(=O)N[C@H](C(=O)N[C@@H](CC(N)=O)C(=O)N[C@@H](C)C(=O)N[C@@H](CCCNC(=N)N)C(=O)N[C@H](C(=O)N[C@@H](CC(C)C)C(=O)N[C@@H](C)C(=O)N[C@@H](CCCNC(=N)N)C(=O)N[C@H](C(N)=O)C(C)C)[C@@H](C)CC)[C@@H](C)O)[C@@H](C)O)C(=O)O` [Compound 29] (H-IVLSLDVPIGLLQILLEQEKQEKK([γGlu-Palmitoyl])KQQATTNARILARV-NH2), the EC50 is 64.7 nM.

As for `CCCCCCCCCCCCCCCC(=O)N[C@@H](CCC(=O)NCCCC[C@H](NC(=O)[C@H](CCC(=O)O)NC(=O)[C@H](CCCCN)NC(=O)[C@H](CCC(=O)O)NC(=O)[C@H](CCC(N)=O)NC(=O)[C@H](CCCCN)NC(=O)[C@H](CCC(=O)O)NC(=O)[C@H](CCC(N)=O)NC(=O)[C@H](CCC(=O)O)NC(=O)[C@H](CC(C)C)NC(=O)[C@H](CC(C)C)NC(=O)[C@@H](NC(=O)[C@H](CCC(N)=O)NC(=O)[C@H](CC(C)C)NC(=O)[C@H](CC(C)C)NC(=O)CNC(=O)[C@@H](NC(=O)[C@@H]1CCCN1C(=O)[C@@H](NC(=O)[C@H](CC(=O)O)NC(=O)[C@H](CC(C)C)NC(=O)[C@H](CO)NC(=O)[C@H](CC(C)C)NC(=O)[C@@H](NC(=O)[C@@H](N)[C@@H](C)CC)C(C)C)C(C)C)[C@@H](C)CC)[C@@H](C)CC)C(=O)N[C@@H](CCC(N)=O)C(=O)N[C@@H](CCC(N)=O)C(=O)N[C@@H](C)C(=O)N[C@H](C(=O)N[C@H](C(=O)N[C@@H](CC(N)=O)C(=O)N[C@@H](C)C(=O)N[C@@H](CCCNC(=N)N)C(=O)N[C@H](C(=O)N[C@@H](CC(C)C)C(=O)N[C@@H](C)C(=O)N[C@@H](CCCNC(=N)N)C(=O)N[C@H](C(N)=O)C(C)C)[C@@H](C)CC)[C@@H](C)O)[C@@H](C)O)C(=O)O` [Compound 30] (H-IVLSLDVPIGLLQILLEQEKQEKEK([γGlu-Palmitoyl])QQATTNARILARV-NH2), the 50% effective concentration (EC50) amounted to 12.4 nM.
